Series [1] concerns Murine EL-4 lymphoma cell line overexpressing human RORγt. Briefly: IL-17 secretion from EL4 murine lymphoma. Format: cell-based. Particulars: Mus musculus; human RORγt-transfected EL4 cells, PMA (10 ng/mL) and ionomycin (1 μM), 24 h; read-out: IC50, IL-17 secretion inhibition. A digest of the protocol: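 EL-4 cells electroporated with hRORγt plasmid, seeded at 150000 cells/well and pretreated with compound for 24 h, then stimulated with PMA (10 ng/mL) plus ionomycin (1 μM final) with compound for a further 24 h at 37 °C. IL-17 in supernatant measured by HTRF or ELISA.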

Series [2] deals with T1, RORγt ligand-binding domain (RORγt-LBD) (Homo sapiens, UniProt P51449).
T1 construct: 20 nM recombinantly expressed RORγ-LBD fused to GST
T1 sequence (P51449 269-508 limits assumed): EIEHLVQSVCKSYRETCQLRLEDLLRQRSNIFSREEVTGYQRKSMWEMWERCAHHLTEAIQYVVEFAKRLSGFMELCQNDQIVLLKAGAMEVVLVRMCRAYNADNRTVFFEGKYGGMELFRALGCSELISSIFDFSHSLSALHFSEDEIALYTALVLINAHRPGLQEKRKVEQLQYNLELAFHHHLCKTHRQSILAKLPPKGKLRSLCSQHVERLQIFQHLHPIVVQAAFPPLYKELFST
Briefly: Time-resolved FRET (TR-FRET) RORγt coactivator assay. Particulars: GST-RORγ-LBD, biotinylated RIP140 peptide, 2 hours at room temperature. An excerpt:
Time-resolved FRET (TR-FRET) RORγt coactivator assay was used to identify RORγ modulator compounds with ligand-dependent coactivator displacement. The assay uses a d2-labeled anti-GST antibody, synthetic N-terminally biotinylated peptide which is derived from nuclear receptor coactivator protein RIP140, and a RORγt ligand-binding domain (RORγt-LBD) that is tagged with glutathione-S-transferase (GST). The influence of compounds on the RORγ-peptide interaction relies on the binding dependent energy transfer from a donor to an acceptor fluorophor attached to the binding partner of interest. […] For reduction of background from compound fluorescence, TR-FRET method makes use of generic fluorophore labels and time resolved detection.
The assays were done in a final volume of 20 μl in a 384 well plate in a CHAPS buffer (2 mM CHAPS; 1 mM DTT, 2 mM EDTA; 0.1% BSA), containing 20 nM recombinantly expressed RORγ-LBD fused to GST, 30 nM N-terminally biotinylated peptide, 1 nM streptavidin-terbium conjugate and 20 nM d2 labeled-anti-GST. Test compounds were diluted using 10 mM stock solution. The range of the final compound concentrations used in this test was from 0.3 nM to 30 μM (logarithmic scale). DMSO content of the samples was kept at 1%. The assay was equilibrated for 2 hours in the dark at room temperature in 384 well plates (Falcon). The signal was detected by an Ultra384 reader (TECAN). […] Compounds that promote coactivator displacement induce a concentration-dependent decrease in time-resolved fluorescent signal. Data were collected and analyzed using GraphPad Prism software (GraphPad Software V5.02, San Diego Calif. USA). IC50 in μM and Emax in % were reported for each compound.
On the technique in general: In TR-FRET formats the signal depends on donor and acceptor labels being close together.

A further series has as its target T2, human RORγt (Homo sapiens, UniProt P51449).
T2 construct: the full-length cDNA of human RORγt; expressed in transfected cells; host or cells: COS-7 (monkey kidney)
T2 sequence (P51449 1-497 isoform P51449-2): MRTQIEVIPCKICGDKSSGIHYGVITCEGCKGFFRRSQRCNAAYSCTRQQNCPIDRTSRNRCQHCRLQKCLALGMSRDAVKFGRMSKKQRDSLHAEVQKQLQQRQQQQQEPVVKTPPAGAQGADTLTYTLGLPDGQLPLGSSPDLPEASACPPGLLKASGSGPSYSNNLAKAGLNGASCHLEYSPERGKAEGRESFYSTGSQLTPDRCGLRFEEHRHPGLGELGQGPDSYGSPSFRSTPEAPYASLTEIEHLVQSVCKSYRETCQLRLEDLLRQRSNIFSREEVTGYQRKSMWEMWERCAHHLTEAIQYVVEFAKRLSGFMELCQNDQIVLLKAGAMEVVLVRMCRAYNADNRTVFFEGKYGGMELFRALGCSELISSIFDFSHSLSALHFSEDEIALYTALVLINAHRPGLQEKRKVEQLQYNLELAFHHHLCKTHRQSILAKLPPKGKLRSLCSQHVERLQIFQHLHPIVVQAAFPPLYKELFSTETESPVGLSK
The experiment in a line: RORE Luciferase/RORγt transactivation assay. Type of series: cell-based. The conditions noted are these: COS-7 cells transfected with human IL-17 promoter luciferase reporter and RORγt plasmid; 20 h with compound; read-out: IC50, RORγt activity inhibition. A digest of the protocol:
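COS-7 cells were transiently co-transfected with a human IL-17 promoter (RORE/CNS)–luciferase reporter and a RORγt expression plasmid, then seeded at 10000 cells/well in serum-free, phenol red-free DMEM. Compounds were added at 0.3% DMSO final. Luciferase was read with Steady-Glo, and IC50 and Emax were derived.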
(In general: In a reporter assay the amount or activity of a reporter protein is the signal.)

Several values for one entry are separate records, joined by “and”; a condition that tells them apart may be missing. Equal values may be shown once. Bounds are passed on as bounds.

One may read the IC50 as the midpoint of a concentration-inhibition curve. `Cc1ccc(C(NC(=O)Cc2ccc3c(c2)OCC(=O)N3)c2ccccc2)c(N2CCCCC2)c1` (stereo not drawn) [Cpd. 1, N-{[4-methyl-2-(piperidin-1-yl)phenyl](phenyl)methyl}-2-(3-oxo-3,4-dihydro-2H-1,4-benzoxazin-7-yl)acetamide]: the half-maximal inhibitory concentration (IC50) (in series [1]; in series [2]; at human RORγt) was 100 to 1000 nM each time.

Turning to `Cc1ccc(C(NC(=O)Cc2ccc3c(c2)OCC(=O)N3)c2ccccc2)c(N2CCOCC2)c1` (stereo not drawn) [Cpd. 2, N-{[4-methyl-2-(morpholin-4-yl)phenyl](phenyl)methyl}-2-(3-oxo-3,4-dihydro-2H-1,4-benzoxazin-7-yl)acetamide], the values for the IC50 (in series [1]; in series [2]; at human RORγt) were greater than 10000 nM, 10 to 100 nM and 1000 to 10000 nM, respectively.

As to `O=C1COc2cc(CC(=O)NC(c3ccccc3)c3ccccc3N3CCCCC3)ccc2N1` (stereo not drawn) [Cpd. 3, 2-(3-oxo-3,4-dihydro-2H-1,4-benzoxazin-7-yl)-N-{phenyl[2-(piperidin-1-yl)phenyl]methyl}acetamide], the values for the concentration for half-maximal inhibition (IC50) (in series [1]; in series [2]; on human RORγt) were 1000 to 10000 nM, 100 to 1000 nM and 1000 to 10000 nM, respectively.

In the case of `COc1ccc(C(NC(=O)Cc2ccc3c(c2)OCC(=O)N3)c2ccccc2)c(N2CCCCC2)c1` (stereo not drawn) [Cpd. 4, N-{[4-methoxy-2-(piperidin-1-yl)phenyl](phenyl)methyl}-2-(3-oxo-3,4-dihydro-2H-1,4-benzoxazin-7-yl)acetamide], the half-maximal inhibitory concentration (IC50) was 100 to 1000 nM in series [1], 10 to 100 nM in series [2] and 100 to 1000 nM at human RORγt.

Take `O=C1COc2cc(CC(=O)NC(c3ccccc3)c3ccccc3N3CCCC3)ccc2N1` (stereo not drawn) [Cpd. 5, 2-(3-oxo-3,4-dihydro-2H-1,4-benzoxazin-7-yl)-N-{phenyl[2-(pyrrolidin-1-yl)phenyl]methyl}acetamide]: the 50% inhibitory concentration (IC50) in series [1] was greater than 10000 nM; in series [2] it was 10 to 100 nM; at human RORγt it was 1000 to 10000 nM.

Turning to `Cc1ccc(C(NC(=O)Cc2ccc3[nH]c(=O)cc(C)c3c2)c2ccccc2)c(N2CCCCC2)c1` (stereo not drawn) [Cpd. 11, N-{[4-methyl-2-(piperidin-1-yl)phenyl](phenyl)methyl}-2-(4-methyl-2-oxo-1,2-dihydroquinolin-6-yl)acetamide], the half-maximal inhibitory concentration (IC50) in series [1] was 1000 to 10000 nM; in series [2], 100 to 1000 nM; at human RORγt it was 1000 to 10000 nM.

As for `Cc1ccc(C(NC(=O)Cc2ccc3c(c2)CC(=O)N3)c2ccccc2)c(N2CCCCC2)c1` (stereo not drawn) [Cpd. 16, N-{[4-methyl-2-(piperidin-1-yl)phenyl](phenyl)methyl}-2-(2-oxo-2,3-dihydro-1H-indol-5-yl)acetamide], the half-maximal inhibitory concentration (IC50) was 100 to 1000 nM in series [1]; 10 to 100 nM in series [2]; 100 to 1000 nM and 10 to 100 nM on human RORγt.

Turning to `Cc1ccc(C(NC(=O)Cc2ccc3c(c2)C(=O)C(=O)N3)c2ccc(C)o2)c(N2CCCCC2)c1` (stereo not drawn) [Cpd. 23, 2-(2,3-dioxo-2,3-dihydro-1H-indol-5-yl)-N-{[4-methyl-2-(piperidin-1-yl)phenyl](5-methylfuran-2-yl)methyl}acetamide], the half-maximal inhibitory concentration (IC50) (in series [1]; in series [2]; at human RORγt) was 100 to 1000 nM each time.

`Cc1ccc(C(NC(=O)Cc2ccc3c(c2)OC(C)(C)C(=O)N3)c2ccc(C)o2)c(N2CCCCC2)c1` (stereo not drawn) [Cpd. 25, 2-(2,2-dimethyl-3-oxo-3,4-dihydro-2H-1,4-benzoxazin-7-yl)-N-{[4-methyl-2-(piperidin-1-yl)phenyl](5-methylfuran-2-yl)methyl}acetamide]: the IC50 in series [1] was in the range of 1000 to 10000 nM; in series [2], 100 to 1000 nM; on human RORγt it was 100 to 1000 nM.

On to `Cc1ccc(C(NC(=O)Cc2ccc3c(c2)CS(=O)(=O)N3)c2ccc(C)o2)c(N2CCCCC2)c1` (stereo not drawn) [Cpd. 27, 2-(2,2-dioxo-1,3-dihydro-2,1-benzothiazol-5-yl)-N-{[4-methyl-2-(piperidin-1-yl)phenyl](5-methylfuran-2-yl)methyl}acetamide], for which the half-inhibitory concentration (IC50) in series [1] was 100 to 1000 nM; in series [2], less than 10 nM; at human RORγt it was 10 to 100 nM.

Consider `Cc1ccc(C(NC(=O)Cc2ccc3c(c2)C(=Cc2cnc(N)s2)C(=O)N3)c2ccc(C)o2)c(N2CCCCC2)c1` (stereo not drawn) [Cpd. 44, 2-{3-[(2-amino-1,3-thiazol-5-yl)methylidene]-2-oxo-2,3-dihydro-1H-indol-5-yl}-N-{[4-methyl-2-(piperidin-1-yl)phenyl](5-methylfuran-2-yl)methyl}acetamide], for which the IC50 lay within 1000 to 10000 nM in series [1], 100 to 1000 nM in series [2] and 100 to 1000 nM on human RORγt.

As a reminder, the melting point is the temperature, or range, at which the solid turns liquid. The compound `Cc1ccc(C(NC(=O)Cc2ccc3c(c2)/C(=C\C(C)C)C(=O)N3)c2ccc(C)o2)c(N2CCCCC2)c1` (stereo not drawn) [Cpd. 48, N-{[4-methyl-2-(piperidin-1-yl)phenyl](5-methylfuran-2-yl)methyl}-2-[(3E)-3-(2-methylpropylidene)-2-oxo-2,3-dihydro-1H-indol-5-yl]acetamide] yielded a melting point of 91 °C. Moreover, the IC50 in series [2] was 100 to 1000 nM. For the same compound, the 50% inhibitory concentration (IC50) at human RORγt fell in the range of 100 to 1000 nM.

With `Cc1ccc(C(NC(=O)Cc2ccc3c(c2)CCC3O)c2ccc(C)o2)c(N2CCCCC2)c1` (stereo not drawn) [Cpd. 52, 2-(1-hydroxy-2,3-dihydro-1H-inden-5-yl)-N-{[4-methyl-2-(piperidin-1-yl)phenyl](5-methylfuran-2-yl)methyl}acetamide], the IC50 in series [1] is 100 to 1000 nM; in series [2], less than 10 nM; on human RORγt, 10 to 100 nM.

For the compound `Cc1ccc(C(NC(=O)Cc2ccc3c(c2)C(O)C(=O)N3C)c2ccc(C)o2)c(N2CCCCC2)c1` (stereo not drawn) [Cpd. 53, 2-(3-hydroxy-1-methyl-2-oxo-2,3-dihydro-1H-indol-5-yl)-N-{[4-methyl-2-(piperidin-1-yl)phenyl](5-methylfuran-2-yl)methyl}acetamide], the half-inhibitory concentration (IC50) in series [1] was 100 to 1000 nM; in series [2], less than 10 nM; on human RORγt it was 10 to 100 nM.

As to `Cc1ccc(C(NC(=O)C2(c3ccc4c(c3)OCC(=O)N4)CC2)c2ccc(C)o2)c(C)c1` (stereo not drawn) [Cpd. 59, N-[(2,4-dimethylphenyl)(5-methylfuran-2-yl)methyl]-1-(3-oxo-3,4-dihydro-2H-1,4-benzoxazin-7-yl)cyclopropane-1-carboxamide], the values for the IC50 (in series [1]; in series [2]; at human RORγt) were less than 100 nM, less than 10 nM and less than 10 nM, respectively.

As to `Cc1ccc(C(NC(=O)Cc2ccc3c(ccn3CCC(=O)O)c2)c2ccc(C)o2)c(C)c1` (stereo not drawn) [Cpd. 101, 3-[5-({[(2,4-dimethylphenyl)(5-methylfuran-2-yl)methyl]carbamoyl}methyl)-1H-indol-1-yl]propanoic acid], the melting point was found to be 65 °C. This compound also yielded a half-maximal inhibitory concentration (IC50) in series [2] of 10 to 100 nM. For the same compound, the IC50 at human RORγt fell in the range of 100 to 1000 nM.

Take `Cc1ccc(C(NC(=O)Cc2ccc3c(ccn3CCC(=O)O)c2)c2ccc(C)o2)c(Br)c1` (stereo not drawn) [Cpd. 102, 3-[5-({[(2-bromo-4-methylphenyl)(5-methylfuran-2-yl)methyl]carbamoyl}methyl)-1H-indol-1-yl]propanoic acid]: the melting point turned out to be 70 °C. The IC50 in series [2] is 10 to 100 nM. The IC50 on human RORγt fell in the range of 100 to 1000 nM.

(Values after patent US11052092B2, “N-{[2-(piperidin-1-yl)phenyl](phenyl)methyl}-2-(3-oxo-3,4-dihydro-2H-1,4-benzoxazin-7-yl)acetamide derivatives and related compounds as ROR-gamma modulators for treating autoimmune diseases” (Genfit, priority 2017, dated 2021).)
